US10821115B2, “Compounds that inhibit Mcl-1 protein” (priority 2017, dated 2020)
Read-outs that look alike come from different tables or passages of the source.

Key:
[1] = target: recombinant human Mcl-1 (residues 171-327) / Bim interaction (Homo sapiens (Human), UniProt Q07820); assay: biochemical; assay type: binding
[2] = tested on: human multiple myeloma cell line, OPM-2; assay: Cell viability assay (OPM-2 10 FBS), CellTiter-Glo; assay type: cell-based
In short: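 IC50 values come from 4-parameter logistic fits of luminescence signals reflecting cell viability. Treatment lasted 16 h at 37 °C in complete medium with 10% FBS, starting from 3000 cells/well.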

[3] = TR-FRET, Mcl-1(171-327) / biotin-Bim (51-76), read-out: Mcl-1 HTRF IC50
[4] = Homo sapiens, OPM-2, 16 h, read-out: OPM-2 10% FBS IC50 IP, OPM-2 cells, 10% FBS, 16 h, CellTiter-Glo
[5] = read-out: OPM-2 10% FBS IC50 IP, OPM-2 cells, 10% FBS, 16 h, CellTiter-Glo
[6] = 0.1 nM Mcl-1(171-327), 0.05 nM biotin-Bim (51-76), read-out: Mcl-1 HTRF IC50
[7] = Homo sapiens, OPM-2, 16 h, read-out: OPM-2 10% FBS IC50 IP, OPM-2 cells, 10% FBS, 16 h incubation
[8] = read-out: OPM-2 10% FBS IC50 IP, OPM-2 cells, 10% FBS, 16 h incubation

Chain of recombinant human Mcl-1 (residues 171-327) / Bim interaction (Q07820 171-327): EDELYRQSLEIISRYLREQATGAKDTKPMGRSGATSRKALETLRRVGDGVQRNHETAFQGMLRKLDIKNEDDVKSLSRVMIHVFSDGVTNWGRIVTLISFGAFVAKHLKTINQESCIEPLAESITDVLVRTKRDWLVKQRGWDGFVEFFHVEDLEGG

Work on `C[C@@H]1[C@@H](C)C/C=C/[C@](O)(c2c[nH]nn2)[C@@H]2CC[C@H]2CN2C[C@@]3(CCCc4cc(Cl)ccc43)COc3ccc(cc32)C(=O)NS1(=O)=O` [Example 100239, (1S,3′R,6′R,7′R,8′E,11′S,12′R)-6-chloro-7′-hydroxy-11′,12′-dimethyl-7′-(1H-1,2,3-triazol-4-yl)-3,4-dihydro-2H,15′H-spiro[naphthalene-1,22′-[20]oxa[13]thia[1,14]diazatetracyclo [14.7.2.0~3,6~.0~19,24~]pentacosa[8,16,18,24]tetraen]-15′-one 13′,13′-dioxide] yielded an IC50 [1, 3] of 0.333 nM and an IC50 [2, 4] of 3740 nM.

Work on `CCN(CC)C(=O)C[C@]1(O)CCC[C@H](C)[C@@H](C)S(=O)(=O)NC(=O)c2ccc3c(c2)N(C[C@@H]2CC[C@H]21)C[C@@]1(CCCc2cc(Cl)ccc21)CO3` [Example 100111, 2-((1S,3′R,6′R,7′R,11′S,12′R)-6-chloro-7′-hydroxy-11′,12′-dimethyl-13′,13′-dioxido-15′-oxo-3,4-dihydro-2H-spiro[naphthalene-1,22′-[20]oxa[13]thia[1,14]diazatetracyclo [14.7.2.0~3,6~.0~19,24~]pentacosa[16,18,24]trien]-7′-yl)-N,N-diethylacetamide] yielded an IC50 ([1]; read-out: Mcl-1 HTRF IC50) of 0.352 nM and an IC50 [2, 5] of 687 nM.

With `COCCN1CCN(C[C@]2(OC)/C=C/C[C@H](C)[C@@H](C)S(=O)(=O)NC(=O)c3ccc4c(c3)N(C[C@@H]3CC[C@H]32)C[C@@]2(CCCc3cc(Cl)ccc32)CO4)CC1=O` [Example 55, (1S,3′R,6′R,7′S,8′E,11′S,12′R)-6-chloro-7′-methoxy-7′-((4-(2-methoxyethyl)-3-oxo-1-piperazinyl)methyl)-11′,12′-dimethyl-3,4-dihydro-2H,15′H-spiro[naphthalene-1,22′-[20]oxa[13]thia[1,14]diazatetracyclo [14.7.2.0~3,6~.0~19,24~]pentacosa[8,16,18,24]tetraen]-15′-one 13′,13′-dioxide] the IC50 [1, 6] was 0.162 nM and the IC50 [2, 7] was 80 nM.

`CO[C@]1(CN2CCN3CCC(F)(F)C[C@@H]3C2)/C=C/C[C@H](C)[C@@H](C)S(=O)(=O)NC(=O)c2ccc3c(c2)N(C[C@@H]2CC[C@H]21)C[C@@]1(CCCc2cc(Cl)ccc21)CO3` (single isomer, unassigned) [Example 298] showed an IC50 [1, 6] of 0.279 nM and an IC50 [2, 8] of 262 nM.

`COCCCN1CCN(C[C@]2(OC)/C=C/C[C@H](C)[C@@H](C)S(=O)(=O)NC(=O)c3ccc4c(c3)N(C[C@@H]3CC[C@H]32)C[C@@]2(CCCc3cc(Cl)ccc32)CO4)CC1` [Example 302, (1S,3′R,6′R,7′S,8′E,11′S,12′R)-6-chloro-7′-methoxy-7′-((4-(3-methoxypropyl)-1-piperazinyl)methyl)-11′,12′-dimethyl-3,4-dihydro-2H,15′H-spiro[naphthalene-1,22′-[20]oxa[13]thia[1,14]diazatetracyclo [14.7.2.0~3,6~.0~19,24~]pentacosa[8,16,18,24]tetraen]-15′-one 13′,13′-dioxide] showed an IC50 [1, 6] of 0.107 nM and an IC50 [2, 7] of 84 nM.

With `CO[C@]1(CN2CCN3CCCC[C@@H]3C2)/C=C/C[C@H](C)[C@@H](CCN2CCOCC2)S(=O)(=O)NC(=O)c2ccc3c(c2)N(C[C@@H]2CC[C@H]21)C[C@@]1(CCCc2cc(Cl)ccc21)CO3` [Example 365, (1S,3′R,6′R,7′R,8′E,11′S,12′R)-6-chloro-7′-methoxy-11′-methyl-12′-(2-(4-morpholinyl)ethyl)-7′-((9aR)-octahydro-2H-pyrido[1,2-a]pyrazin-2-ylmethyl)-3,4-dihydro-2H,15′H-spiro[naphthalene-1,22′-[20]oxa[13]thia[1,14]diazatetracyclo [14.7.2.0~3,6~.0~19,24~]pentacosa[8,16,18,24]tetraen]-15′-one 13′,13′-dioxide] the IC50 [1, 6] was 0.104 nM and the IC50 [2, 7] was 32 nM.

`COCC1(N(C)C(=O)C[C@]2(OC)/C=C/C[C@H](C)[C@@H](C)S(=O)(=O)NC(=O)c3ccc4c(c3)N(C[C@@H]3CC[C@H]32)C[C@@]2(CCCc3cc(Cl)ccc32)CO4)CC1` [Example 100396, 2-((1S,3′R,6′R,7′S,8′E,11′S,12′R)-6-chloro-7′-methoxy-11′,12′-dimethyl-13′,13′-dioxido-15′-oxo-3,4-dihydro-2H-spiro[naphthalene-1,22′-[20]oxa[13]thia[1,14]diazatetracyclo [14.7.2.0~3,6~.0~19,24~]pentacosa[8,16,18,24]tetraen]-7′-yl)-N-(1-(methoxymethyl)cyclopropyl)-N-methylacetamide] was tested, and the IC50 [1, 3] was 0.272 nM and the IC50 [2, 4] was 1470 nM.

For `CC(C)[C@]1(O)/C=C/C[C@H](C)[C@@H](C)S(=O)(=O)NC(=O)c2ccc3c(c2)N(C[C@@H]2CC[C@H]21)C[C@@]1(CCCc2cc(Cl)ccc21)CO3` [Example 100208, (1S,3′R,6′R,7′S,8′E,11′S,12′R)-6-chloro-7′-hydroxy-11′,12′-dimethyl-7′-(2-propanyl)-3,4-dihydro-2H,15′H-spiro[naphthalene-1,22′-[20]oxa[13]thia[1,14]diazatetracyclo [14.7.2.0~3,6~.0~19,24~]pentacosa[8,16,18,24]tetraen]-15′-one 13′,13′-dioxide], the IC50 [1, 3] was 0.431 nM and the IC50 [2, 4] was 318 nM.

`CO[C@@]1(CC(=O)On2nnc3cccnc32)/C=C/C[C@H](C)[C@@H](C)S(=O)(=O)NC(=O)c2ccc3c(c2)N(C[C@@H]2CC[C@H]21)C[C@@]1(CCCc2cc(Cl)ccc21)CO3` [Example 100576, (1S,3′R,6′R,7′S,8′E,11′S,12′R)-6-chloro-7′-methoxy-11′,12′-dimethyl-7′-(2-oxo-2-(3H-[1,2,3]triazolo[4,5-b]pyridin-3-yloxy)ethyl)-3,4-dihydro-2H,15′H-spiro[naphthalene-1,22′-[20]oxa[13]thia[1,14]diazatetracyclo [14.7.2.0~3,6~.0~19,24~]pentacosa[8,16,18,24]tetraen]-15′-one 13′,13′-dioxide] was tested, and the IC50 [1, 3] was 1.15 nM and the IC50 [2, 4] was 4090 nM.

`CCO[C@]1(CN2CCN(C3COC3)CC2)/C=C/[C@H](C)[C@H](C)CS(=O)(=O)NC(=O)c2ccc3c(c2)N(C[C@@H]2CC[C@H]21)C[C@@]1(CCCc2cc(Cl)ccc21)CO3` [Example 166, (1S,3′R,6′R,7′R,8′E,10′S,11′S)-6-chloro-7′-ethoxy-10′,11′-dimethyl-7′-((4-(3-oxetanyl)-1-piperazinyl)methyl)-3,4-dihydro-2H,15′H-spiro[naphthalene-1,22′-[20]oxa[13]thia[1,14]diazatetracyclo [14.7.2.0~3,6~.0~19,24~]pentacosa[8,16,18,24]tetraen]-15′-one 13′,13′-dioxide] gave an IC50 [1, 6] of 0.107 nM and an IC50 [2, 7] of 50 nM.

`C[C@@H]1[C@@H](C)C/C=C/[C@@](O)(C#CCO)[C@@H]2CC[C@H]2CN2C[C@@]3(CCCc4cc(Cl)ccc43)COc3ccc(cc32)C(=O)NS1(=O)=O` [Example 100394, (1S,3′R,6′R,7′S,8′E,11′S,12′R)-6-chloro-7′-hydroxy-7′-(3-hydroxy-1-propyn-1-yl)-11′,12′-dimethyl-3,4-dihydro-2H,15′H-spiro[naphthalene-1,22′-[20]oxa[13]thia[1,14]diazatetracyclo [14.7.2.0~3,6~.0~19,24~]pentacosa[8,16,18,24]tetraen]-15′-one 13′,13′-dioxide] gave an IC50 [1, 3] of 0.242 nM and an IC50 [2, 5] of 622 nM.

Work on `C=CCOC[C@]1(O)/C=C/C[C@H](C)[C@@H](C)S(=O)(=O)NC(=O)c2ccc3c(c2)N(C[C@@H]2CC[C@H]21)C[C@@]1(CCCc2cc(Cl)ccc21)CO3` (single isomer, unassigned) [Example 100496] yielded an IC50 [1, 3] of 2.67 nM and an IC50 [2, 4] of 5060 nM.

With `C[C@@H]1[C@@H](C)C/C=C/[C@]2(CNC(=O)O2)[C@@H]2CC[C@H]2CN2C[C@@]3(CCCc4cc(Cl)ccc43)COc3ccc(cc32)C(=O)NS1(=O)=O` (single isomer, unassigned) [Example 128] the IC50 [1, 6] was 0.256 nM and the IC50 [2, 8] was 19600 nM.

`CO[C@@]1(CC(=O)N2CCN(C)C[C@H]2C)/C=C/C[C@H](C)[C@@H](C)S(=O)(=O)NC(=O)c2ccc3c(c2)N(C[C@@H]2CC[C@H]21)C[C@@]1(CCCc2cc(Cl)ccc21)CO3` (single isomer, unassigned) [Example 100479] showed an IC50 [1, 3] of 0.758 nM and an IC50 [2, 5] of 332 nM.

With `COC(OC)c1cncc([C@]2(O)/C=C/C[C@H](C)[C@@H](C)S(=O)(=O)NC(=O)c3ccc4c(c3)N(C[C@@H]3CC[C@H]32)C[C@@]2(CCCc3cc(Cl)ccc32)CO4)c1` (single isomer, unassigned) [Example 100510] the IC50 [1, 3] was 0.07 nM and the IC50 [2, 4] was 379 nM.

`C[C@@H]1[C@@H](C)C/C=C/[C@](C)(O)[C@@H]2CC[C@H]2CN2C[C@@]3(CCCc4cc(Cl)ccc43)COc3ccc(cc32)C(=O)NS1(=O)=O` [Example 100016, (1S,3′R,6′R,7′S,8′E,11′S, 12′R)-6-chloro-7′-hydroxy-7′,11′,12′-trimethyl-3,4-dihydro-2H,15′H-spiro[naphthalene-1,22′-[20]oxa[13]thia[1,14]diazatetracyclo[14.7.2.0-3,6˜.0˜19,24˜]pentacosa[8,16,18,24]tetraen]-15′-one 13′,13′-dioxide] was tested, and the IC50 ([1]; Mcl-1 HTRF IC50) was 0.182 nM and the IC50 [2, 4] was 132 nM.

For `CO[C@]1(c2cncc(CN3CCOCC3)c2)/C=C/C[C@H](C)[C@@H](C)S(=O)(=O)NC(=O)c2ccc3c(c2)N(C[C@@H]2CC[C@H]21)C[C@@]1(CCCc2cc(Cl)ccc21)CO3` (stereo in doubt) [Example 100521], the IC50 [1, 3] was 0.197 nM and the IC50 [2, 4] was 296 nM.

Work on `CO[C@]1(c2cnc(Cl)n2C)/C=C/C[C@H](C)[C@@H](C)S(=O)(=O)NC(=O)c2ccc3c(c2)N(C[C@@H]2CC[C@H]21)C[C@@]1(CCCc2cc(Cl)ccc21)CO3` (single isomer, unassigned) [Example 100539] yielded an IC50 [1, 3] of 0.144 nM and an IC50 [2, 4] of 727 nM.
